Measured values reported in PubChem BioAssay (NCI).
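Cultured in 96-well plates, cells were exposed to test compound for 48 hours across five concentrations. GI50 = concentration required for 50% inhibition of growth. TGI: concentration producing complete growth inhibition.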

Columns and labels:
Assay in all cases: inhibition of tumour cell growth, NCI panel, 48 h
786-0 renal = tested on: 786-0 renal
A498 renal = tested on: A498 renal
A549 NSCLC = tested on: A549 NSCLC
ACHN renal = tested on: ACHN renal
BT-549 breast = tested on: BT-549 breast
CAKI-1 renal = tested on: CAKI-1 renal
CCRF-CEM leukemia = tested on: CCRF-CEM leukemia
COLO 205 colon = tested on: COLO 205 colon
DU-145 prostate = tested on: DU-145 prostate
EKVX NSCLC = tested on: EKVX NSCLC
HCC-2998 colon = tested on: HCC-2998 colon
HCT-116 colon = tested on: HCT-116 colon
HCT-15 colon = tested on: HCT-15 colon
HL-60(TB) leukemia = tested on: HL-60(TB) leukemia
HOP-62 NSCLC = tested on: HOP-62 NSCLC
HOP-92 NSCLC = tested on: HOP-92 NSCLC
HS 578T breast = tested on: HS 578T breast
HT29 colon = tested on: HT29 colon
IGROV1 ovarian = tested on: IGROV1 ovarian
K-562 leukemia = tested on: K-562 leukemia
KM12 colon = tested on: KM12 colon
LOX IMVI melanoma = tested on: LOX IMVI melanoma
M14 melanoma = tested on: M14 melanoma
MALME-3M melanoma = tested on: MALME-3M melanoma
MCF7 breast = tested on: MCF7 breast
MDA-MB-231 breast = tested on: MDA-MB-231 breast
MDA-MB-435 = tested on: MDA-MB-435
MDA-MB-468 breast = tested on: MDA-MB-468 breast
MOLT-4 leukemia = tested on: MOLT-4 leukemia
NCI-H226 lung = tested on: NCI-H226 lung
NCI-H23 lung = tested on: NCI-H23 lung
NCI-H460 lung = tested on: NCI-H460 lung
NCI-H522 lung = tested on: NCI-H522 lung
NCI/ADR-RES ovarian = tested on: NCI/ADR-RES ovarian
OVCAR-3 ovarian = tested on: OVCAR-3 ovarian
OVCAR-4 ovarian = tested on: OVCAR-4 ovarian
OVCAR-5 ovarian = tested on: OVCAR-5 ovarian
OVCAR-8 ovarian = tested on: OVCAR-8 ovarian
PC-3 prostate = tested on: PC-3 prostate
RPMI-8226 leukemia = tested on: RPMI-8226 leukemia
RXF 393 renal = tested on: RXF 393 renal
SF-268 CNS = tested on: SF-268 CNS
SF-295 CNS = tested on: SF-295 CNS
SF-539 CNS = tested on: SF-539 CNS
SK-MEL-2 melanoma = tested on: SK-MEL-2 melanoma
SK-MEL-28 melanoma = tested on: SK-MEL-28 melanoma
SK-MEL-5 melanoma = tested on: SK-MEL-5 melanoma
SK-OV-3 ovarian = tested on: SK-OV-3 ovarian
SN12C renal = tested on: SN12C renal
SNB-19 CNS = tested on: SNB-19 CNS
SNB-75 CNS = tested on: SNB-75 CNS
SR leukemia = tested on: SR leukemia
SW-620 colon = tested on: SW-620 colon
T-47D breast = tested on: T-47D breast
TK-10 renal = tested on: TK-10 renal
U251 CNS = tested on: U251 CNS
UACC-257 melanoma = tested on: UACC-257 melanoma
UACC-62 melanoma = tested on: UACC-62 melanoma
UO-31 renal = tested on: UO-31 renal

CS(=O)(=O)Nc1cc(-c2ccc3ncnc(N4CCc5cc(F)c(Cl)cc54)c3c2)cnc1Cl
GI50 (786-0 renal): 1.64 µM
TGI (786-0 renal): 27 µM
GI50 (A498 renal): 0.64 µM
TGI (A498 renal): 3.54 µM
GI50 (A549 NSCLC): 1.64 µM
TGI (A549 NSCLC): 8.67 µM
GI50 (ACHN renal): 1.66 µM
TGI (ACHN renal): > 100 µM
GI50 (BT-549 breast): 1.48 µM
TGI (BT-549 breast): 5.11 µM
GI50 (CAKI-1 renal): 0.748 µM
TGI (CAKI-1 renal): 7.32 µM
GI50 (CCRF-CEM leukemia): 1.84 µM
TGI (CCRF-CEM leukemia): > 100 µM
GI50 (COLO 205 colon): 1.61 µM
TGI (COLO 205 colon): 9.61 µM
GI50 (DU-145 prostate): 1.67 µM
TGI (DU-145 prostate): 19.5 µM
GI50 (EKVX NSCLC): 0.559 µM
TGI (EKVX NSCLC): 3.63 µM
GI50 (HCC-2998 colon): 1.24 µM
TGI (HCC-2998 colon): 8.36 µM
GI50 (HCT-116 colon): 3.49 µM
TGI (HCT-116 colon): 17.4 µM
GI50 (HCT-15 colon): 1 µM
TGI (HCT-15 colon): 11.4 µM
GI50 (HL-60(TB) leukemia): 0.484 µM
TGI (HL-60(TB) leukemia): 15.1 µM
GI50 (HOP-62 NSCLC): 0.704 µM
TGI (HOP-62 NSCLC): 7.36 µM
GI50 (HOP-92 NSCLC): 0.595 µM
TGI (HOP-92 NSCLC): 6.68 µM
GI50 (HS 578T breast): 0.166 µM
TGI (HS 578T breast): 1.13 µM
GI50 (HT29 colon): 1.48 µM
TGI (HT29 colon): 16.8 µM
GI50 (IGROV1 ovarian): 0.194 µM
TGI (IGROV1 ovarian): 0.979 µM
GI50 (K-562 leukemia): 5.37 µM
TGI (K-562 leukemia): 68.8 µM
GI50 (KM12 colon): 3.02 µM
TGI (KM12 colon): 18.5 µM
GI50 (LOX IMVI melanoma): 1.05 µM
TGI (LOX IMVI melanoma): 4.09 µM
GI50 (M14 melanoma): 1.48 µM
TGI (M14 melanoma): 14.7 µM
GI50 (MALME-3M melanoma): 0.174 µM
TGI (MALME-3M melanoma): 1.55 µM
GI50 (MCF7 breast): 0.255 µM
TGI (MCF7 breast): 11.6 µM
GI50 (MDA-MB-231 breast): 1.51 µM
TGI (MDA-MB-231 breast): 4.29 µM
GI50 (MDA-MB-435): 1.72 µM
TGI (MDA-MB-435): 13 µM
GI50 (MDA-MB-468 breast): 0.211 µM
TGI (MDA-MB-468 breast): 1.38 µM
GI50 (MOLT-4 leukemia): 1.06 µM
TGI (MOLT-4 leukemia): 5 µM
GI50 (NCI-H226 lung): 0.672 µM
TGI (NCI-H226 lung): 7.43 µM
GI50 (NCI-H23 lung): 1.63 µM
TGI (NCI-H23 lung): 9.94 µM
GI50 (NCI-H460 lung): 0.922 µM
TGI (NCI-H460 lung): 13.1 µM
GI50 (NCI-H522 lung): 1.62 µM
TGI (NCI-H522 lung): 14.3 µM
GI50 (NCI/ADR-RES ovarian): 1.95 µM
TGI (NCI/ADR-RES ovarian): 15.3 µM
GI50 (OVCAR-3 ovarian): 0.83 µM
TGI (OVCAR-3 ovarian): 4.56 µM
GI50 (OVCAR-4 ovarian): 2.35 µM
TGI (OVCAR-4 ovarian): 21.1 µM
GI50 (OVCAR-5 ovarian): 1.87 µM
TGI (OVCAR-5 ovarian): 23.5 µM
GI50 (OVCAR-8 ovarian): 1.87 µM
TGI (OVCAR-8 ovarian): 20.5 µM
GI50 (PC-3 prostate): 1.03 µM
TGI (PC-3 prostate): 21 µM
GI50 (RPMI-8226 leukemia): 1.84 µM
TGI (RPMI-8226 leukemia): > 100 µM
GI50 (RXF 393 renal): 0.577 µM
TGI (RXF 393 renal): 3.17 µM
GI50 (SF-268 CNS): 1.65 µM
TGI (SF-268 CNS): 47.9 µM
GI50 (SF-295 CNS): 1.06 µM
TGI (SF-295 CNS): 5.28 µM
GI50 (SF-539 CNS): 1.56 µM
TGI (SF-539 CNS): 6.73 µM
GI50 (SK-MEL-2 melanoma): 1.73 µM
TGI (SK-MEL-2 melanoma): 5.8 µM
GI50 (SK-MEL-28 melanoma): 1.32 µM
TGI (SK-MEL-28 melanoma): 13.4 µM
GI50 (SK-MEL-5 melanoma): 0.85 µM
TGI (SK-MEL-5 melanoma): 2.61 µM
GI50 (SK-OV-3 ovarian): 0.444 µM
TGI (SK-OV-3 ovarian): 2.84 µM
GI50 (SN12C renal): 1.68 µM
TGI (SN12C renal): 36.5 µM
GI50 (SNB-19 CNS): 1.64 µM
TGI (SNB-19 CNS): 13.4 µM
GI50 (SNB-75 CNS): 0.254 µM
TGI (SNB-75 CNS): 3 µM
GI50 (SR leukemia): 1.52 µM
TGI (SR leukemia): 12.9 µM
GI50 (SW-620 colon): 2.51 µM
TGI (SW-620 colon): 17.4 µM
GI50 (T-47D breast): 0.141 µM
TGI (T-47D breast): 0.963 µM
GI50 (TK-10 renal): 0.644 µM
TGI (TK-10 renal): 9.62 µM
GI50 (U251 CNS): 2.36 µM
TGI (U251 CNS): 17.5 µM
GI50 (UACC-257 melanoma): 1.39 µM
TGI (UACC-257 melanoma): 11 µM
GI50 (UACC-62 melanoma): 0.382 µM
TGI (UACC-62 melanoma): 2.57 µM
GI50 (UO-31 renal): 0.252 µM
TGI (UO-31 renal): 4.05 µM
